This is an account of results in patent publication US10426781B2, “Oral formulation and suspension of an oncology drug” (SUN PHARMA GLOBAL FZE, priority 2013, dated 2019).

Data set [1] can be described thus: Solubility of sonidegib phosphate in various media. Format: physicochemical. From the text:
Solubility of Sonidegib Phosphate in Various Media

Data set [2] in a line: Surface area of sonidegib drug substance. Format: physicochemical.

For the molecule `Cc1c(C(=O)Nc2ccc(N3C[C@@H](C)O[C@@H](C)C3)nc2)cccc1-c1ccc(OC(F)(F)F)cc1` [Sonidegib Phosphate], the solubility in data set [1] (acetate buffer, pH 4.5, aqueous buffer) is below 0.2 µg/mL; in data set [1] (phosphate buffer, pH 6.8, aqueous buffer) it was below 0.2 µg/mL; in data set [1] (phosphate buffer, pH 7.4, aqueous buffer) it was below 0.2 µg/mL; in data set [1] (simulated gastric fluid, 0.01N HCl, pH 2.0), 18 µg/mL; in data set [1] (simulated gastric fluid, 0.1N HCl, pH 1.0), 4 µg/mL; in data set [1] (water), 7 µg/mL.
For the molecule `Cc1c(C(=O)Nc2ccc(N3C[C@@H](C)O[C@@H](C)C3)nc2)cccc1-c1ccc(OC(F)(F)F)cc1` [Sonidegib, N-(6-((2R,6S)-2,6-dimethylmorpholino)pyridin-3-yl)-2-methyl-4′-(trifluoromethoxy)-[1,1′-biphenyl]-3-carboxamide], the surface area entry in data set [2] is “Sonidegib has a very high surface area (270 m2/g) and a porous structure that leads to poor water solubility”.
